Assay results from patent publication US20240327393A1 (SIRONAX LTD., priority 2021, published 2024).

System: HT-1080 (ATCC, CCL-121) cells
Test: HT-1080 cell viability assay with ferroptosis inducer RSL3 (Cell Titer-Glo)
Assay type: cell-based
Conditions: Homo sapiens; HT-1080 cells treated with RSL3; 3-fold, 10-point dilution, 1.1 μM highest concentration; Table 2; read-out: EC50 (nM), ferroptosis inhibitory activity
In short: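 HT-1080 cells (6000 per well) were cultured overnight at 37 °C, then co-treated with RSL3 and compound in a 3-fold, 10-point series topping at 1.1 μM. Viability was read by CellTiter-Glo luminescence and normalized to untreated controls. EC50 came from a sigmoidal non-linear regression fit.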

Work on `Cn1c(=O)oc2ccc(Nc3ccc(N4CCCCC4)cc3)cc21` [Compound 389, 3-methyl-5-((4-(piperidin-1-yl)phenyl)amino)benzo[d]oxazol-2(3H)-one] yielded an EC50 of 0.1 to 100 nM.
Compound `COC1(C(F)(F)F)CCN(c2ccc(Nc3ccc4oc(=O)n(C)c4c3)cc2)CC1` [Compound 390, 5-((4-(4-methoxy-4-(trifluoromethyl)piperidin-1-yl)phenyl)amino)-3-methylbenzo[d]oxazol-2(3H)-one] has an EC50 of 0.1 to 100 nM.
In the case of `Cn1c(=O)oc2ccc(Nc3ccc(N4CCC(CF)CC4)cc3)cc21` [Compound 391, 5-((4-(4-(fluoromethyl)piperidin-1-yl)phenyl)amino)-3-methylbenzo[d]oxazol-2(3H)-one], the EC50 is reported as 0.1 to 100 nM.
`CCn1c(=O)oc2ccc(Nc3ccc(N4CCC(C(F)(F)F)CC4)cc3)cc21` [Compound 392, 3-ethyl-5-((4-(4-(trifluoromethyl)piperidin-1-yl)phenyl)amino) benzo[d]oxazol-2(3H)-one] showed an EC50 of 0.1 to 100 nM.
In the case of `COCCn1c(=O)oc2ccc(Nc3ccc(N4CCC(C(F)(F)F)CC4)cc3)cc21` [Compound 393], the EC50 is reported as 0.1 to 100 nM.
For `Cn1c(=O)n(C)c2cc(Nc3ccc(C4CCCCC4)cc3)ccc21` [Compound 394, 5-((4-cyclohexylphenyl)amino)-1,3-dimethyl-1,3-dihydro-2H-benzo[d]imidazol-2-one], the EC50 was 0.1 to 100 nM.
Compound `COc1cc(Nc2ccc(N3CCC(C(F)(F)F)CC3)cc2)cc2c1ccn2C` [Compound 395, 4-methoxy-1-methyl-N-(4-(4-(trifluoromethyl)piperidin-1-yl)phenyl)-1H-indol-6-amine] has an EC50 of 0.1 to 100 nM.
`Cn1c(NCC2CC2)cc2ccc(Nc3ccc(N4CCC(C(F)(F)F)CC4)cc3)cc21` [Compound 396, N2-(cyclopropylmethyl)-1-methyl-N6-(4-(4-(trifluoromethyl)piperidin-1-yl)phenyl)-1H-indole-2,6-diamine] gave an EC50 of 0.1 to 100 nM.
`Cn1c(N(CC2CC2)CC2CC2)cc2ccc(Nc3ccc(N4CCC(C(F)(F)F)CC4)cc3)cc21` [Compound 397, N2,N2-bis(cyclopropylmethyl)-1-methyl-N6-(4-(4-(trifluoromethyl)piperidin-1-yl)phenyl)-1H-indole-2,6-diamine] showed an EC50 of 0.1 to 100 nM.
`NC(=O)n1ncc2cc(Nc3ccc(N4CCC(C(F)(F)F)CC4)cc3)ccc21` [Compound 398, 5-((4-(4-(trifluoromethyl)piperidin-1-yl)phenyl)amino)-1H-indazole-1-carboxamide] gave an EC50 of 0.1 to 100 nM.
In the case of `CN(C)c1cn(C)c2cccc(Nc3ccc(N4CCC(C(F)(F)F)CC4)cc3)c12` [Compound 399, N3,N3,1-trimethyl-N4-(4-(4-(trifluoromethyl)piperidin-1-yl)phenyl)-1H-indole-3,4-diamine], the EC50 is reported as 0.1 to 100 nM.
`COc1cc(Nc2ccc(N3CCC(C(F)(F)F)CC3)cc2)cc2c1oc(=O)n2C` [Compound 400, 7-methoxy-3-methyl-5-((4-(4-(trifluoromethyl)piperidin-1-yl)phenyl)amino)benzo[d]oxazol-2(3H)-one] showed an EC50 of 0.1 to 100 nM.
`CCNc1nc2cc(Nc3ccc(N4CCC(C(F)(F)F)CC4)cc3)ccc2n1C` [Compound 401, N2-ethyl-1-methyl-N5-(4-(4-(trifluoromethyl)piperidin-1-yl)phenyl)-1H-benzo[d]imidazole-2,5-diamine] gave an EC50 of 0.1 to 100 nM.
With `CCN(CC)c1nc2ccc(Nc3ccc(N4CCC(C(F)(F)F)CC4)cc3)cc2n1C` [Compound 402, N2,N2-diethyl-1-methyl-N6-(4-(4-(trifluoromethyl)piperidin-1-yl)phenyl)-1H-benzo[d]imidazole-2,6-diamine] the EC50 was 0.1 to 100 nM.
For `Cn1cc(C(N)=O)c2ccc(Nc3ccc(N4CCC(C(F)(F)F)CC4)cc3)cc21` [Compound 403, 1-methyl-6-((4-(4-(trifluoromethyl)piperidin-1-yl)phenyl)amino)-1H-indole-3-carboxamide], the EC50 was 0.1 to 100 nM.
Work on `Cn1c(=O)n(C)c2cc(Nc3ccc(C(F)(F)F)cc3)ccc21` [Compound 404, 1,3-dimethyl-5-((4-(trifluoromethyl)phenyl)amino)-1,3-dihydro-2H-benzo [d]imidazol-2-one] yielded an EC50 of 0.1 to 100 nM.
For `CN(C)CCn1c(=O)n(C)c2cc(Nc3ccc(C4CCC(C)(C)CC4)cc3)ccc21` [Compound 405, 1-(2-(dimethylamino)ethyl)-5-((4-(4,4-dimethylcyclohexyl)phenyl)amino)-3-methyl-1,3-dihydro-2H-benzo[d]imidazol-2-one], the EC50 was 0.1 to 100 nM.
`Cn1c(=O)oc2cc(Nc3ccc(C4CCC(C)(C)CC4)cc3)ccc21` [Compound 406, 6-((4-(4,4-dimethylcyclohexyl)phenyl)amino)-3-methylbenzo[d]oxazol-2(3H)-one] was tested, and the EC50 was 0.1 to 100 nM.
Work on `Cn1c(=O)n(C)c2cc(Nc3ccc(C4CCC(C)(C)CC4)cc3)ccc21` [Compound 407, 5-((4-(4,4-dimethylcyclohexyl)phenyl)amino)-1,3-dimethyl-1,3-dihydro-2H-benzo[d]imidazol-2-one] yielded an EC50 of 0.1 to 100 nM.
For `CC1(C)CCC(c2ccc(Oc3ccc4nc(N)sc4c3)cc2)CC1` [Compound 408, 6-(4-(4,4-dimethylcyclohexyl)phenoxy)benzo[d]thiazol-2-amine], the EC50 was 0.1 to 100 nM.
Compound `CC1(C)CCC(c2ccc(Nc3ccc4nc(N)sc4c3)cc2)CC1` [Compound 409, N^6-(4-(4,4-dimethylcyclohexyl)phenyl)benzo[d]thiazole-2,6-diamine] has an EC50 of 0.1 to 100 nM.
`Cc1cc(N2CCC(C(F)(F)F)CC2)ccc1Nc1ccc2c(c1)CNC2` [Compound 410, N-(2-methyl-4-(4-(trifluoromethyl)piperidin-1-yl)phenyl) isoindolin-5-amine] gave an EC50 of 0.1 to 100 nM.
`CCC(C)(C)c1ccc(Nc2ccc3c(c2)n(C)c(=O)n3C)cc1` [Compound 411, 1,3-dimethyl-5-((4-(tert-pentyl)phenyl)amino)-1,3-dihydro-2H-benzo[d]imidazol-2-one] gave an EC50 of 0.1 to 100 nM.
Work on `NC(=O)CCn1ncc2cc(Nc3ccc(N4CCC(C(F)(F)F)CC4)cc3)ccc21` [Compound 412, 3-(5-((4-(4-(trifluoromethyl)piperidin-1-yl)phenyl)amino)-1H-indazol-1-yl)propanamide] yielded an EC50 of 0.1 to 100 nM.
`NC(=O)CCn1cc2cc(Nc3ccc(N4CCC(C(F)(F)F)CC4)cc3)ccc2n1` [Compound 413, 3-(5-((4-(4-(trifluoromethyl)piperidin-1-yl)phenyl)amino)-2H-indazol-2-yl)propanamide] gave an EC50 of 0.1 to 100 nM.
`CNCCCn1ncc2cc(Nc3ccc(N4CCC(C(F)(F)F)CC4)cc3)ccc21` [Compound 414, 1-(3-(methylamino)propyl)-N-(4-(4-(trifluoromethyl)piperidin-1-yl)phenyl)-1H-indazol-5-amine] showed an EC50 of 0.1 to 100 nM.
For `CNCCCn1cc2cc(Nc3ccc(N4CCC(C(F)(F)F)CC4)cc3)ccc2n1` [Compound 415, 2-(3-(methylamino)propyl)-N-(4-(4-(trifluoromethyl)piperidin-1-yl)phenyl)-2H-indazol-5-amine], the EC50 was 0.1 to 100 nM.
For `CNCCCn1c(=O)oc2ccc(Nc3ccc(N4CC(C)OC(C)C4)cc3)cc21` (stereo not shown) [Compound 416], the EC50 was 0.1 to 100 nM.
`NC(=O)NCCn1c(=O)oc2ccc(Nc3ccc(N4CCC(C(F)(F)F)CC4)cc3)cc21` [Compound 417, 1-(2-(2-oxo-5-((4-(4-(trifluoromethyl)piperidin-1-yl)phenyl)amino)benzo[d]oxazol-3(2H)-yl)ethyl)urea] gave an EC50 of 0.1 to 100 nM.
`CNCCCn1c(=O)oc2ccc(Nc3ccc(N4CCC(C(F)(F)F)CC4)cc3)cc21` [Compound 418, 3-(3-(methylamino)propyl)-5-((4-(4-(trifluoromethyl)piperidin-1-yl)phenyl)amino)benzo[d]oxazol-2(3H)-one] was tested, and the EC50 was 0.1 to 100 nM.
In the case of `NC(=O)NCCn1cc2cc(Nc3ccc(N4CCC(C(F)(F)F)CC4)cc3)ccc2n1` [Compound 419, 1-(2-(5-((4-(4-(trifluoromethyl)piperidin-1-yl)phenyl)amino)-2H-indazol-2-yl)ethyl)urea], the EC50 is reported as 0.1 to 100 nM.
In the case of `CC1CN(c2ccc(Nc3ccc4oc(=O)n(C)c4c3)cc2)CC(C)O1` (stereo not shown) [Compound 420, 5-((4-(2,6-dimethylmorpholino)phenyl)amino)-3-methylbenzo[d]oxazol-2(3H)-one], the EC50 is reported as 0.1 to 100 nM.
For `NC(=O)NCCn1ncc2cc(Nc3ccc(N4CCC(C(F)(F)F)CC4)cc3)ccc21` [Compound 421, 1-(2-(5-((4-(4-(trifluoromethyl)piperidin-1-yl)phenyl)amino)-1H-indazol-1-yl)ethyl)urea], the EC50 was 0.1 to 100 nM.
Compound `CC1CN(c2ccc(Nc3ccc4c(cnn4C)c3)cc2)CC(C)O1` (stereo not shown) [Compound 422, N-(4-(2,6-dimethylmorpholino)phenyl)-1-methyl-1H-indazol-5-amine] has an EC50 of 0.1 to 100 nM.
Work on `CC1CN(c2ccc(Nc3ccc4nn(C)cc4c3)cc2)CC(C)O1` (stereo not shown) [Compound 423, N-(4-(2,6-dimethylmorpholino)phenyl)-2-methyl-2H-indazol-5-amine] yielded an EC50 of 0.1 to 100 nM.
`CC1CN(c2ccc(Nc3ccc4c(c3)oc(=O)n4CCN(C)C)cc2)CC(C)O1` (stereo not shown) [Compound 424] showed an EC50 of 0.1 to 100 nM.
Compound `CC1CN(c2ccc(Nc3ccc4c(c3)c(C(N)=O)cn4C)cc2)CC(C)O1` (stereo not shown) [Compound 425, 5-((4-(2,6-dimethylmorpholino)phenyl)amino)-1-methyl-1H-indole-3-carboxamide] has an EC50 of 0.1 to 100 nM.
Compound `CC1CN(c2ccc(Nc3ccc4c(c3)n(C)c(=O)n4CCN(C)C)cc2)CC(C)O1` (stereo not shown) [Compound 426, 1-(2-(dimethylamino)ethyl)-5-((4-(2,6-dimethylmorpholino)phenyl)amino)-3-methyl-1,3-dihydro-2H-benzo[d]imidazol-2-one] has an EC50 of 0.1 to 100 nM.
For `CNCCn1c(=O)oc2ccc(Nc3ccc(N4CC(C)OC(C)C4)cc3)cc21` (stereo not shown) [Compound 427, 5-((4-(2,6-dimethylmorpholino)phenyl)amino)-3-(2-(methylamino)ethyl) benzo[d]oxazol-2(3H)-one], the EC50 was 0.1 to 100 nM.
In the case of `CC1CN(c2ccc(Nc3ccc4c(c3)C(C)(C)C(=O)N4C)cc2)CC(C)O1` (stereo not shown) [Compound 428, 5-((4-(2,6-dimethylmorpholino)phenyl)amino)-1,3,3-trimethylindolin-2-one], the EC50 is reported as 0.1 to 100 nM.
